Source: patent US8895610B1, “Platinum (IV) compounds targeting zinc finger domains” (priority 2007, dated 2014)
“And” between values parts separate entries of the source, which are not always exact repeats. Identical values can stand only once.

Tests used:
[1] = tested on: peripheral CD4+ and CD8+ T-lymphocytes; assay: Circulating CD4+ and CD8+ T-lymphocytes by flow cytometry; assay type: in vivo, domestic cat
Description: Numbers of peripheral CD4^+ and CD8^+ T-lymphocytes in the blood were determined by labeling with mouse monoclonal antibodies to feline CD4^+ (FE1.7B12) and feline CD8^+ (FE1.10E9), obtained from Peter F. Moore, University of California, Davis, Calif. Bound primary antibodies were detected using FITC-conjugated anti-mouse IgG1 (Space-Serotec, Milan, Italy), and the samples were analyzed on a FACScan flow cytometer (Becton Dickinson, San Jose, Calif.). Both a negative (no drug) and positive (integrase inhibitor cocktail) control are included with data from two HK inhibitor-tested felines.

F2 zinc finger peptide = F2 zinc finger peptide (Human immunodeficiency virus type 1 group M subtype B, UniProt P12493)
Description: Solutions of F2 zinc finger peptide in phosphate-buffered saline without calcium or magnesium (see Example 1) alone or mixed with zinc and/or platinum compounds were analyzed by MALDI-TOF (matrix-assisted laser desorption/time-of-flight) MS (mass spectrometry). Briefly, the samples comprised 1:1 ratios of F2 peptide with metals in phosphate buffered saline without calcium or magnesium at 2×10 moles/liter concentrations. Additionally, samples containing both Zn(II) and Pt(IV) metals with F2 peptide in a 1:1:1 ratio were analyzed, as were various Pt(IV) and Pt(II) compounds mixed with F2 peptide solutions. Samples were considered to be at equilibrium after 12 hours stored at 4° C. Volumes of 0.5-1.0 microliters for each sample were individually spotted with or without dilution at 1:10, 1:100 or 1:1000 (˜165-193 pmole/microliter) in DHB matrix (Laser Biolabs, France). […]
The main group of peaks include at least two overlapping peaks characteristic of cysteines (see note above) with neutral mass within 2451.82-2457.82 Da, singly charged ions at m/z 2452.82-2458.82 Da. […] While MALDI-TOF MS is not quantitative, relative peak heights are proportional to relative amounts of species.

TIMP-1 = assay: Feline blood serum immunofluorescent bead analysis: TIMP-1; assay type: in vivo, cat; conditions: cats BR, CF
Description: Test sera samples from select felines were analyzed using the Rules-Based Medicine (Austin, Tex.) human multi-analyte for 90 measures from a single sample of less than 0.5 mL. The assay uses immunofluorescent beads to simultaneously measure antibody recognition to individually identifiable colored beads, each conjugated with a specific antibody, within a single well plate. Blood samples were drawn preceding (pretreatment) and following (post treatment) one-month FX101 treatment (from felines in Example 6), and are compared with two uninfected control felines. Human cross-reactive antibodies are commonly used for felines, and are relative rather than quantitative measures. Reductions in TNF-alpha and MMP-2 are evident in treated cats; TIMP-1 (Tissue Inhibitor of Metalloproteinases) is not associated with the downregulation of MMP-2. Both MMP-2 and MMP-9, as well as MCP-1, are considered important contributors to the penetration of virally-infected cells across the BBB (Webster, 2006). Additional comments follow the table.

[2] = tested on: HIV-Infected Human Monocyte-Derived Macrophages; assay: Reverse transcription rates in HIV-infected monocyte-derived macrophages; assay type: cell-based; conditions: 1 to 10 uM; vs untreated and mock-infected MDM
Description: Primary human monocyte-derived macrophages (MDM) were prepared by culturing elutriated monocytes in RPMI-1640 medium, supplemented with 10% fetal bovine serum for 5 to 7 days on ultra-low attachment plates. MDMs were detached from the plates and plated onto tissue culture dishes or microscope culture chambers. MDMs in 6-well plates were infected with WT pNL(AD8) virus stocks and 2×10^6 reverse transcriptase cpm/well. Various incubated concentrations of platinum(IV) compound ranging from 1 to 10 uM were compared with untreated (no drug) and mock-infected MDM reverse transcription rates (counts per minute/microliter). Medium in the MDM cultures was changed every two days and an aliquot was reserved for reverse transcriptase (RT) activity at each time point (Gousset, 2008). […] This activity parallels that observed by Mark-Danieli et al. (2005) by certain zinc finger mutations of the nucleocapsid protein; other investigators have reported decreases or no changes in transcription rates with various mutations (Ramboarina, 2004; Houzet, 2008). […] Increasing the efficiency of reverse transcription initiation is detrimental to viral replication (Thomas and Gorelick, 2008). One role of nucleocapsid proteins is regulation of the transcription cadence in virally-infected cells.

[NH2][Pt]([NH2])([Cl])([Cl])([Cl])[N+](=O)[O-] [FX101, nitrotrichlorodiamminoPt(IV)]
Relative CD4+/CD8+ T-Lymphocyte Counts ([1]; Aug. 2, 2007 pretreatment period): 1.1 and 1.3
Relative CD4+/CD8+ T-Lymphocyte Counts ([1]; Aug. 23, 2007 start of treatment period): 1.2
Relative CD4+/CD8+ T-Lymphocyte Counts ([1]; Aug. 30, 2007 treatment period): 1.5 and 1.3
Relative CD4+/CD8+ T-Lymphocyte Counts ([1]; Dec. 1, 2005 pretreatment period): 1.5 and 2.0
Relative CD4+/CD8+ T-Lymphocyte Counts ([1]; Feb. 1, 2006 pretreatment period): 0.82 and 1.1
Relative CD4+/CD8+ T-Lymphocyte Counts ([1]; Jan. 1, 2006 pretreatment period): 1.6 and 0.92
Relative CD4+/CD8+ T-Lymphocyte Counts ([1]; Mar. 1, 2006 pretreatment period): 0.84 and 1.2
Relative CD4+/CD8+ T-Lymphocyte Counts ([1]; May 8, 2008 (+33 wk) post treatment): 1.8 and 1.6
Relative CD4+/CD8+ T-Lymphocyte Counts ([1]; Nov. 1, 2005 pretreatment period): 0.86 and 0.85
Relative CD4+/CD8+ T-Lymphocyte Counts ([1]; Oct. 4, 2007 (+2 wk) post treatment): 1.9 and 1.4
Relative CD4+/CD8+ T-Lymphocyte Counts ([1]; Sep. 4, 2007 treatment period): 1.5 and 1.6
final CD4+/CD8+ ratios compared with controls ([1]; conclusion of the study, both tested felines): remained higher
competition with zinc for the F2 zinc finger binding domain (F2 zinc finger peptide; 1:1:1 F2:FX:Zn): thermodynamic competition of FX over zinc
coordination with F2 peptide (set of peaks at m/z 2452.82-2458.82 Da) (F2 zinc finger peptide; 1:1 with F2 peptide in PBS, 12 hours at 4° C.): unique to the F2 peptide+FX spectral complex
TIMP-1, relative blood serum measure (TIMP-1; post treatment (one-month FX101 treatment)): 9.0 ng/mL and 7.3 ng/mL
TIMP-1, relative blood serum measure (TIMP-1; pretreatment): 6.5 ng/mL and 9.8 ng/mL
reverse transcription rate [2]: do not inhibit reverse transcription in this system, but rather increase this rate
